Activity calls are given as the source filed them. The rule behind the calls is not given here.
Columns and labels:
[1] = target: T1, Vascular endothelial growth factor receptor 2 (Homo sapiens, UniProt P35968); assay: Inhibition of VEGFR-2 kinase assessed as phosphorylated level of pGAT-biotin peptide preincubated for 5 to 10 mins before addition of substrate measured after 2 hrs by HTRF assay
[2] = Inhibition of bovine tubulin polymerization after 30 mins by turbidity assay; set-up: species or system Bos taurus
[3] = target: T1, Vascular endothelial growth factor receptor 2; assay: Inhibition of VEGFR2 expressed HEK293 cells; assay type: cell-based
[4] = system: A-431; assay: cells; details: Homo sapiens, A-431, 24 h
Description: Cell cycle arrest in human A431 cells assessed as accumulation at G2/M phase after 24 hrs using propidium iodide staining by cell sorting method

[5] = system: Mus musculus; assay: Toxicity in mouse assessed as body weight change at 100 mg/kg, po administered once a week; assay type: organism-based; set-up: dose 100 mg/kg, route oral; details: in vivo
[6] = target: T2, Aurora kinase A (Homo sapiens) (UniProt O14965); assay: Inhibition of Aurora A kinase
T2 sequence (whole entry): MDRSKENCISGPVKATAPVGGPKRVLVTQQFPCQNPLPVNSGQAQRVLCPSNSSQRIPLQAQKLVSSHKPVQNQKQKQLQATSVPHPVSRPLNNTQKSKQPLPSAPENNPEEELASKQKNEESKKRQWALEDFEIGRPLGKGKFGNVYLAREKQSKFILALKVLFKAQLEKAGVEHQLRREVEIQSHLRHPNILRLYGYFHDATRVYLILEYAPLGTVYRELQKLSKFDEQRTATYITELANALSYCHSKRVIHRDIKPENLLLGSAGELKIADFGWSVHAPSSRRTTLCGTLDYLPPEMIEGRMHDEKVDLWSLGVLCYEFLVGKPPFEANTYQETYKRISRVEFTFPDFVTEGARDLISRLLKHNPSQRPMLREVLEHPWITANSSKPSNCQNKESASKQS

[7] = system: Mus musculus; assay: Toxicity in mouse assessed as neuropathy at 100 mg/kg administered once a week; assay type: organism-based; set-up: dose 100 mg/kg; details: in vivo
[8] = target: Cyclin-dependent kinase 1 (Homo sapiens) (UniProt P06493); assay: Inhibition of CDK1
Chain of Cyclin-dependent kinase 1 (Homo sapiens) (P06493 whole entry, looked up): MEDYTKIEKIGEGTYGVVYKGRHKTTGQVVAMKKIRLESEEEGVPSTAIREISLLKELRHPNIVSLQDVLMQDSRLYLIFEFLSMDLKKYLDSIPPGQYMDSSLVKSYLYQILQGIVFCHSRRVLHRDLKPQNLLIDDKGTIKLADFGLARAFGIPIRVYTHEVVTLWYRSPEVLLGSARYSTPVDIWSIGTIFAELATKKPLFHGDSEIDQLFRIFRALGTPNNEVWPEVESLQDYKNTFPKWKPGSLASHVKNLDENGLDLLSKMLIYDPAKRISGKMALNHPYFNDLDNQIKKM

[9] = Toxicity in po dosed mouse; assay type: organism-based; details: in vivo
[10] = system: Mus musculus; assay: Toxicity in mouse assessed as abnormal pathology at 100 mg/kg, po administered once a week; assay type: organism-based; set-up: dose 100 mg/kg, route oral; details: in vivo
[11] = system: Mus musculus; assay: Toxicity in mouse assessed as discomfort signs at 100 mg/kg, po administered once a week; assay type: organism-based; set-up: dose 100 mg/kg, route oral; details: in vivo
[12] = target: Serine/threonine-protein kinase PLK1 (Homo sapiens) (UniProt P53350); assay: Inhibition of polo-like kinase 1
Chain of Serine/threonine-protein kinase PLK1 (Homo sapiens) (P53350 whole entry): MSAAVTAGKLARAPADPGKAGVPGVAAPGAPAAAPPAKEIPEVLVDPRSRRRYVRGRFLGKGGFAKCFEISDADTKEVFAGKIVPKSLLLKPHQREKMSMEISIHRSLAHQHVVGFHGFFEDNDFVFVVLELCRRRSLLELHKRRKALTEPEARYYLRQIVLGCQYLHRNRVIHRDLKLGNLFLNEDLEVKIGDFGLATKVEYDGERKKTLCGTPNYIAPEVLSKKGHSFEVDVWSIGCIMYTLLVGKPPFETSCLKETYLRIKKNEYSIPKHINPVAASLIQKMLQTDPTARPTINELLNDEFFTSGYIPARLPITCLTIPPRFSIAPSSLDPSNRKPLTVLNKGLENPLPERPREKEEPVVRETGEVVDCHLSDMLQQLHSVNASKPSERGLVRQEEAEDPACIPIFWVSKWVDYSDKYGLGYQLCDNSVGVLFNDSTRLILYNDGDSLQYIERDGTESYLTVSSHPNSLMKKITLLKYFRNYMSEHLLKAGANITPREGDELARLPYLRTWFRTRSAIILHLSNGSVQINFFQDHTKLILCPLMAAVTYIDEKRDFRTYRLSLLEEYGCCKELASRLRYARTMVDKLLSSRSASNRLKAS

[13] = system: Mus musculus; assay: Toxicity in mouse assessed as white blood cell depletion at 100 mg/kg administered once a week; assay type: organism-based; set-up: dose 100 mg/kg; details: in vivo
[14] = Antitumor activity against human MDA-MB-435-LM2 cells xenografted in mouse assessed as tumor size at 100 mg/kg, po administered once a week measured on day 26 relative to control; assay type: functional
[15] = system: Mus musculus; assay: Toxicity in mouse assessed as enlarged intestine at 100 mg/kg, po administered once a week; assay type: organism-based; set-up: dose 100 mg/kg, route oral; details: in vivo
[16] = system: Mus musculus; assay: Toxicity in mouse assessed as inflamed intestine at 100 mg/kg, po administered once a week; assay type: organism-based; set-up: dose 100 mg/kg, route oral; details: in vivo
[17] = system: Mus musculus; assay: Toxicity in mouse assessed as moribund at 100 mg/kg, po administered once a week measured on day 26; assay type: organism-based; set-up: dose 100 mg/kg, route oral; details: in vivo
[18] = system: Mus musculus; assay: Toxicity in mouse assessed as distended stomach at 100 mg/kg, po administered once a week; assay type: organism-based; set-up: dose 100 mg/kg, route oral; details: in vivo

T1 sequence (P35968 whole entry): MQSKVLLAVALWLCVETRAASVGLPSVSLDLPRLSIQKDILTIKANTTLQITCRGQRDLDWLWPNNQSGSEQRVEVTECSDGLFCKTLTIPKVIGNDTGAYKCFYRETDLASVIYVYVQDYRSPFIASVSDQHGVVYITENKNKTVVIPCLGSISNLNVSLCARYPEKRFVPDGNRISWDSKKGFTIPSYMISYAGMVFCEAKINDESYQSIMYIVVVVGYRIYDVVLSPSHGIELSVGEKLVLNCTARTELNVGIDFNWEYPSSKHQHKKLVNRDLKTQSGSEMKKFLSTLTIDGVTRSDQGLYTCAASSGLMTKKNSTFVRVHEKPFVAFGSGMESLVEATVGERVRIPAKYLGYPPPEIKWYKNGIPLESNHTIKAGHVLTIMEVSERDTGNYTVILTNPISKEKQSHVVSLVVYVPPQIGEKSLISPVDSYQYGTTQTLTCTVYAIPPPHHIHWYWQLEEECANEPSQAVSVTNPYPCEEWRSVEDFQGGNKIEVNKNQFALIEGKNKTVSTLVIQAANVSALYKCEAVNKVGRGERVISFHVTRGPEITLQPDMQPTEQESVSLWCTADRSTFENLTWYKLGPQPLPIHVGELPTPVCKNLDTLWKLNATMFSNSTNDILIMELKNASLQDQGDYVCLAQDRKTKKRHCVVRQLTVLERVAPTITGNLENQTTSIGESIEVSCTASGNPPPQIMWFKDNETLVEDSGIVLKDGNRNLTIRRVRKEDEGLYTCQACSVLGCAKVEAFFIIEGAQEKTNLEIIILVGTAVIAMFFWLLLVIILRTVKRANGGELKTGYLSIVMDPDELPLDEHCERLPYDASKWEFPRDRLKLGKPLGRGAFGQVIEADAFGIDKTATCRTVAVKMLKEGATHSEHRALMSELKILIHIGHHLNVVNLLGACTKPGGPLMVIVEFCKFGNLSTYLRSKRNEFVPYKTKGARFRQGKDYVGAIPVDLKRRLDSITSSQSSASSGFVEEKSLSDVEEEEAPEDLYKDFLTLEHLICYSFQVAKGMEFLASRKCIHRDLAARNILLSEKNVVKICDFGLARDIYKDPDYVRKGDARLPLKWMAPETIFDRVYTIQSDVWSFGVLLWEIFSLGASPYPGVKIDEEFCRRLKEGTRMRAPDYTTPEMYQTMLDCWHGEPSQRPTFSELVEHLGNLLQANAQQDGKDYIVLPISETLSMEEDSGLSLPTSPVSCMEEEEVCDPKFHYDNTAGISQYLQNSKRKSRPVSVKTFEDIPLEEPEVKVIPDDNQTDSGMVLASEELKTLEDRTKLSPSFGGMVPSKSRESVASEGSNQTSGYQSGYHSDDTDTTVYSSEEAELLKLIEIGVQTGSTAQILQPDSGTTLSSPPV

IC50 [1]	IC50 [2]	IC50 [3]	EC50 [4]	Compound	also measured
> 10 µM	> 10 µM	> 10 µM	> 10 µM	c1cnc(NCCc2ccncc2)c(-c2nnc(Nc3ccc4c(c3)OCCO4)o2)c1	–
> 10 µM	0.7 µM	> 10 µM	–	c1cncc(CNc2ncccc2-c2nnc(Nc3ccc4c(c3)OCCO4)o2)c1	–
1.89 µM	1 µM	> 10 µM	–	c1cnc(NCc2ccncc2)c(-c2nnc(Nc3ccc4c(c3)OCO4)o2)c1	–
0.3 µM	1.45 µM	0.22 µM	0.018 µM	c1cnc(NCc2ccc3ncccc3c2)c(-c2nnc(Nc3ccc4c(c3)OCCO4)o2)c1	inhibition [6]: Active; inhibition [8]: Active; inhibition [12]: Active
> 10 µM	1.9 µM	> 10 µM	–	c1ccc(CNc2ncccc2-c2nnc(Nc3ccc4c(c3)OCCO4)o2)nc1	–
3.41 µM	1.7 µM	> 10 µM	> 10 µM	c1cncc(CCNc2ncccc2-c2nnc(Nc3ccc4c(c3)OCO4)o2)c1	–
1.1 µM	> 10 µM	1 µM	> 10 µM	FC(F)(F)c1cccc(-c2nnc(-c3cccnc3NCc3ccncc3)[nH]2)c1	–
2.5 µM	> 10 µM	> 10 µM	> 10 µM	FC(F)(F)c1cccc(-c2nnc(-c3cccnc3NCc3ccncc3)o2)c1	–
0.16 µM	1.5 µM	0.83 µM	0.01 µM	c1cnc(NCc2cnc[nH]2)c(-c2nnc(Nc3ccc4c(c3)OCCO4)o2)c1	–

Second part, the molecule before the results:

Compound	IC50 [1]	IC50 [2]	IC50 [3]	EC50 [4]	also measured
c1cnc(NCc2ccncc2)c(-c2nnc(Nc3ccc4c(c3)OCCO4)o2)c1	0.17 µM	0.5 µM	1 µM	–	–
c1cnc(NCc2ccc3[nH]ncc3c2)c(-c2nnc(Nc3ccc4c(c3)OCCO4)o2)c1	1.4 µM	1.25 µM	> 10 µM	0.034 µM	–
CS(=O)(=O)c1ccc(-c2nnc(-c3cccnc3NCC3COCCO3)[nH]2)cc1 (stereo unspecified)	4.5 µM	6.6 µM	> 10 µM	> 10 µM	–
c1cnc(NCc2ccc3c(c2)OCO3)c(-c2nnc(Nc3ccc4c(c3)OCO4)o2)c1	> 10 µM	2.5 µM	> 10 µM	0.52 µM	–
c1ccc(-c2nnc(Nc3ccc4c(c3)OCCO4)o2)c(NCc2ccncc2)c1	0.21 µM	1.09 µM	0.11 µM	0.009 µM	Activity [5]: 3.1%; inhibition [6]: Active; Activity [7]: Non-toxic; inhibition [8]: Active; MTD [9]: 100 mg/kg; Activity [10]: Toxic; Activity [11]: Toxic; inhibition [12]: Active; Activity [13]: Non-toxic; Activity [14]: 28%
c1ccc(-c2nnc(Nc3ccc4c(c3)OCO4)o2)c(NCc2ccncc2)c1	0.83 µM	0.69 µM	> 10 µM	0.62 µM	–
c1ccc(-c2nnc(Nc3ccc4c(c3)OCCO4)[nH]2)c(NCc2ccncc2)c1	5.1 µM	8.1 µM	> 10 µM	0.049 µM	–
c1ccc(-c2nnc(Nc3ccc4c(c3)OCCO4)[nH]2)c(NCc2ccc3ncccc3c2)c1	> 10 µM	> 10 µM	> 10 µM	> 10 µM	–
CC(=O)O[C@H]1C(=O)[C@@]2(C)[C@H]([C@H](OC(=O)c3ccccc3)[C@]3(O)C[C@H](OC(=O)[C@H](O)[C@@H](NC(=O)c4ccccc4)c4ccccc4)C(C)=C1C3(C)C)[C@]1(OC(C)=O)CO[C@@H]1C[C@@H]2O [PACLITAXEL]	–	–	–	–	Activity [15]: Toxic; Activity [5]: 2.8%; Activity [16]: Toxic; Activity [17]: Toxic; Activity [18]: Toxic; Activity [14]: 78%
c1cnc(NCCc2ccncc2)c(-c2nnc(Nc3ccc4c(c3)OCO4)o2)c1	> 10 µM	> 10 µM	> 10 µM	> 10 µM	–
FC1(F)Oc2ccc(Nc3nnc(-c4cccnc4NCc4ccncc4)o3)cc2O1	3.16 µM	3.9 µM	> 10 µM	> 10 µM	–
c1ccc(-c2nnc(Nc3ccc4c(c3)OCCO4)[nH]2)c(NCc2cnc[nH]2)c1	4.6 µM	> 10 µM	> 10 µM	> 10 µM	–
c1cnc(NCc2ccc3c(c2)OCO3)c(-c2nnc(Nc3ccc4c(c3)OCCO4)o2)c1	2.6 µM	0.71 µM	> 10 µM	–	–
c1ccc(-c2nnc(Nc3ccc4c(c3)OCCO4)[nH]2)c(NCc2ccc3[nH]ncc3c2)c1	3.1 µM	> 10 µM	7.3 µM	> 10 µM	–
c1cncc(CNc2ncccc2-c2nnc(Nc3ccc4c(c3)OCO4)o2)c1	> 10 µM	8.8 µM	> 10 µM	–	–
c1ccc(CNc2ncccc2-c2nnc(Nc3ccc4c(c3)OCO4)o2)nc1	> 10 µM	1.7 µM	> 10 µM	–	–
c1cncc(CNc2ccccc2-c2nnc(Nc3ccc4c(c3)OCCO4)[nH]2)c1	3.2 µM	> 10 µM	2.8 µM	> 10 µM	–
c1cncc(CCNc2ncccc2-c2nnc(Nc3ccc4c(c3)OCCO4)o2)c1	> 10 µM	> 10 µM	> 10 µM	> 10 µM	–

From ChEMBL document CHEMBL1687699, “Discovery of Dual VEGFR-2 and Tubulin Inhibitors with in Vivo Efficacy” (ACS Med Chem Lett, 2010)
